Assay results: article PMC6689897, “Drugging an undruggable pocket on KRAS” (Proceedings of the National Academy of Sciences of the …, 2019)
Several values for one entry are separate records, joined by “and”; a condition that tells them apart may be missing. Equal entries are not always repeated.

Legend:
GTP-KRASG12D::CRAF = target: T1, GTP-KRASG12D::CRAF (Homo sapiens, UniProt P01116, G12D); experiment: Alpha Screen PPI assay; assay type: biochemical; details: duplicate
T1 construct: KRAS (G12D) 1-169, N-terminal 6His-tag, C-terminal avi-tag was from Xtal; 6His-tag (N); purchased Xtal BioStructures, Inc
T1 sequence (P01116 1-169 isoform P01116-2 G12D): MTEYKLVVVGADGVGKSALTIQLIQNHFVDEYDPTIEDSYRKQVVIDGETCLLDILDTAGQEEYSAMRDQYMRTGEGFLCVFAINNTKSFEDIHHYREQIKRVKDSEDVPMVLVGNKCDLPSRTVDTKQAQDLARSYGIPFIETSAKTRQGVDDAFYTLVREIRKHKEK
Method: (§1) 221 Measurements of various protein–protein interactions were performed using the Alpha
(§2) 222 Screen technology developed by Perkin Elmer. Recombinant RAS proteins (H-, N-, K-
(§3) 223 RAS variants; all KRAS variants are based on KRAS isoform 4B (uniprot id P01116-2);
(§4) 224 KRAS (G12D) 1-169, N-terminal 6His-tag, C-terminal avi-tag was from Xtal
(§5) 225 BioStructures, Inc., KRAS (G12C) 1-169, C-terminal avi-tag, biotinylated, mutations:
(§6) 226 C51S, C80L, C118S, NRAS(wt) 1-172, C-terminal avi-tag, biotinylated; HRAS(wt) 1-
(§7) 227 166, C-terminal avi-tag, biotinylated). Biotinylation was performed in vitro with
(§8) 228 recombinant BirA biotin-protein ligase as recommended by the manufacturer (Avidity
(§9) 229 LLC, Aurora, Colorado, USA). Interacting proteins such as SOS1 (564-1049, N-terminal
(§10) 230 GST-tag, TEV cleavage site), cRaf (1-303, N-terminal GST-tag, TEV cleavage site) and
(§11) 231 PI3KA- RBD (160-317, N-term-HIS_GST-tag) were expressed as glutathione S
(§12) 232 transferase (GST) fusions. Accordingly, the Alpha Screen beads were glutathione coated
(§13) 233 Alpha Lisa acceptor beads (Perkin Elmer AL 109 R) and Alpha Screen Streptavidin
(§14) 234 conjugated donor beads (Perkin Elmer 6760002L). Nucleotides were purchased from
(§15) 236 interaction assays were carried out in PBS, containing 0.1% bovine serum albumin,
(§16) 237 0,05% Tween-20 and 10 µM of the corresponding nucleotide. Assays were carried out in
(§17) 238 white ProxiPlate-384 Plus plates (Perkin Elmer #6008280) in a final volume of 20 µL. In
(§18) 239 brief, biotinylated RAS proteins (10 nM final concentration) and GST-SOS1, GST-PI3K
(§19) 240 or GST-CRAF (10 nM final) were mixed with glutathione acceptor beads (5 µg/mL final
(§20) 241 concentration) in buffer, containing the corresponding nucleotides (GDP or GTP for
(§21) 242 assays containing SOS1, only GTP for interaction assays containing PI3K or CRAF) and
(§22) 243 were incubated for 30 min at room temperature. After addition of streptavidin donor
(§23) 244 beads (5 µg/mL final concentration) under green light, the mixture was further incubated
(§24) 245 for 60 min in the dark at room temperature. Single oxygen induced fluorescence was
(§25) 246 measured at an Enspire multimode plate reader (Perkin Elmer) according to the
(§26) 247 manufacturer’s recommendations. […]

GTP-KRASwt::CRAF [1] = target: T2, GTP-KRASwt::CRAF (Homo sapiens, UniProt P01116); experiment: Alpha Screen PPI assay; assay type: biochemical; details: Alpha Screen, duplicate
T2 construct: biotin (attachment tag not described)
T2 sequence (P01116 1-188 isoform P01116-2): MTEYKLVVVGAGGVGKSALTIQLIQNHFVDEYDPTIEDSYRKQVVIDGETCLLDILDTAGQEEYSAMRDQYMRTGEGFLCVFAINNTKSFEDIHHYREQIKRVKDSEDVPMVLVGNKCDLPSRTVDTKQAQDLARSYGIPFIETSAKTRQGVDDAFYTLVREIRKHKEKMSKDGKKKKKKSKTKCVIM
Method: as §1, §2, §3, §4, §5, §6, §7, §8, §9, §10, §11, §12, §13, §14, §15, §16, §17, §18, §19, §20, §21, §22, §23, §24, §25, §26

GTP-KRASG12D::PI3Kα = target: T3, GTP-KRASG12D::PI3Kα (Homo sapiens, UniProt P01116, G12D); experiment: Alpha Screen PPI assay; assay type: biochemical; details: duplicate, read-out: IC50 GTP-KRASG12D::PI3K
T3 construct: KRAS (G12D) 1-169, N-terminal 6His-tag, C-terminal avi-tag was from Xtal; 6His-tag (N); purchased Xtal BioStructures, Inc
T3 sequence (P01116 1-169 isoform P01116-2 G12D): as the sequence (P01116 1-169 isoform P01116-2 G12D) above
Method: as §1, §2, §3, §4, §5, §6, §7, §8, §9, §10, §11, §12, §13, §14, §15, §16, §17, §18, §19, §20, §21, §22, §23, §24, §25, §26

GTP-KRASwt::SOS1 = target: T4, GTP-KRASwt::SOS1 (Homo sapiens, UniProt P01116); experiment: Alpha Screen PPI assay; assay type: biochemical; details: duplicate
T4 construct: biotin (attachment tag not described)
T4 sequence (P01116 1-188 isoform P01116-2): as the sequence (P01116 1-188 isoform P01116-2) above
Method: as §1, §2, §3, §4, §5, §6, §7, §8, §9, §10, §11, §12, §13, §14, §15, §16, §17, §18, §19, §20, §21, §22, §23, §24, §25, §26

GTP-KRASwt::PI3Kα = target: T5, GTP-KRASwt::PI3Kα (Homo sapiens, UniProt P01116); experiment: Alpha Screen PPI assay; assay type: biochemical; details: duplicate, read-out: IC50 GTP-KRASwt ::PI3K
T5 construct: biotin (attachment tag not described)
T5 sequence (P01116 1-188 isoform P01116-2): as above
Method: as §1, §2, §3, §4, §5, §6, §7, §8, §9, §10, §11, §12, §13, §14, §15, §16, §17, §18, §19, §20, §21, §22, §23, §24, §25, §26

GTP-KRASwt::CRAF [2] = experiment: Alpha Screen PPI assay; assay type: biochemical, human
Method: as §1, §2, §3, §4, §5, §6, §7, §8, §9, §10, §11, §12, §13, §14, §15, §16, §17, §18, §19, §20, §21, §22, §23, §24, §25, §26

[3] = test system: 4 BRAF(v600E) cell lines (A375, RKO, Colo 201, SK-MEL-28); experiment: pERK modulation in BRAF V600E control cell lines; assay type: cell-based, human
Method: 217 The coordinates and structure factors of the structures have been deposited at the
218 Protein Data Bank with the accession codes PDB Code 6GJ5, 6GJ6, 6GJ7, 6GJ8.
as §1, §2, §3, §4, §5, §6, §7
228 recombinant BirA biotin-protein ligase as recommended by the manufacturer (Avidity […]
231 PI3KA- RBD (160-317, N-term-HIS_GST-tag) were expressed as glutathione S […]
as §24, §25
247 manufacturer’s recommendations. Data were analyzed using the GraphPad Prism data […]
313 added according to manufacturer’s instructions. Fluorescence intensity was determined
314 using a fluorescence reader (2030 VICTOR X5, Perkin Elmer). […]
319 MAPK pathway signaling (pERK, pAKT quantification) […]

Cn1cnc(Cn2ccc3ccc(CNCc4[nH]c5ccccc5c4[C@H]4NC(=O)c5ccc(O)cc54)cc32)c1 [Compound 1]
IC50 (GTP-KRASG12D::CRAF): 770 nM and 180 nM
IC50 (GTP-KRASwt::CRAF [1]): 740 nM
IC50 (GTP-KRASG12D::PI3Kα): 500 nM
IC50 (GTP-KRASwt::SOS1): 490 nM
IC50 (GTP-KRASwt::PI3Kα): 250 nM
selectivity of inhibition biochemically, KRAS^wt versus KRAS^G12C binding to CRAF (GTP-KRASwt::CRAF [2]): 4 fold
inhibition of pERK [3]: no inhibition of pERK
